The values that follow come from US20180099931A1 (AbbVie S.à.r.l., priority 2016, published 2018).

In this assay the target is T1, F508delCFTR (Homo sapiens, UniProt P13569, DEL508-508).
T1 construct: expressed in transfected cells; host or cells: CFBE41o- human lung-derived epithelial cells (CFBE4lo-F508delCFTR-HRP), doxycycline-inducible
The experiment in a line: Cell Surface Expression-Horse Radish Peroxidase (CSE-HRP) Assay.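 As to Maximum % activity (with co-corrector): co-corrector and positive control are both the same reference corrector at 2 µM.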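 As to Maximum % activity (without co-corrector): percent of the 2 µM on-plate positive control corrector response above DMSO.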 The following applies: for Maximum % activity (with co-corrector): with co-corrector (2 μM); for Maximum % activity (with co-corrector) / Emax: maximum at any tested concentration, normalized to on-plate positive control; for Emax: without co-corrector, read-out: Maximum % activity (without co-corrector). In kind it is cell-based.

Setting [1] is: test compound without co-corrector, read-out: EC50 (without co-corrector).
Setting [2] is: with co-corrector (2 μM of 3-[(2R,4R)-4-({[1-(2,2-difluoro-1,3-benzodioxol-5-yl)cyclopropyl]carbonyl}amino)-7-methoxy-3,4-dihydro-2H-chromen-2-yl]benzoic acid), read-out: EC50 (with co-corrector).

Read-outs that look alike come from different tables or passages of the source.

T1 sequence (P13569 with tags, fused parts or gaps DEL508-508): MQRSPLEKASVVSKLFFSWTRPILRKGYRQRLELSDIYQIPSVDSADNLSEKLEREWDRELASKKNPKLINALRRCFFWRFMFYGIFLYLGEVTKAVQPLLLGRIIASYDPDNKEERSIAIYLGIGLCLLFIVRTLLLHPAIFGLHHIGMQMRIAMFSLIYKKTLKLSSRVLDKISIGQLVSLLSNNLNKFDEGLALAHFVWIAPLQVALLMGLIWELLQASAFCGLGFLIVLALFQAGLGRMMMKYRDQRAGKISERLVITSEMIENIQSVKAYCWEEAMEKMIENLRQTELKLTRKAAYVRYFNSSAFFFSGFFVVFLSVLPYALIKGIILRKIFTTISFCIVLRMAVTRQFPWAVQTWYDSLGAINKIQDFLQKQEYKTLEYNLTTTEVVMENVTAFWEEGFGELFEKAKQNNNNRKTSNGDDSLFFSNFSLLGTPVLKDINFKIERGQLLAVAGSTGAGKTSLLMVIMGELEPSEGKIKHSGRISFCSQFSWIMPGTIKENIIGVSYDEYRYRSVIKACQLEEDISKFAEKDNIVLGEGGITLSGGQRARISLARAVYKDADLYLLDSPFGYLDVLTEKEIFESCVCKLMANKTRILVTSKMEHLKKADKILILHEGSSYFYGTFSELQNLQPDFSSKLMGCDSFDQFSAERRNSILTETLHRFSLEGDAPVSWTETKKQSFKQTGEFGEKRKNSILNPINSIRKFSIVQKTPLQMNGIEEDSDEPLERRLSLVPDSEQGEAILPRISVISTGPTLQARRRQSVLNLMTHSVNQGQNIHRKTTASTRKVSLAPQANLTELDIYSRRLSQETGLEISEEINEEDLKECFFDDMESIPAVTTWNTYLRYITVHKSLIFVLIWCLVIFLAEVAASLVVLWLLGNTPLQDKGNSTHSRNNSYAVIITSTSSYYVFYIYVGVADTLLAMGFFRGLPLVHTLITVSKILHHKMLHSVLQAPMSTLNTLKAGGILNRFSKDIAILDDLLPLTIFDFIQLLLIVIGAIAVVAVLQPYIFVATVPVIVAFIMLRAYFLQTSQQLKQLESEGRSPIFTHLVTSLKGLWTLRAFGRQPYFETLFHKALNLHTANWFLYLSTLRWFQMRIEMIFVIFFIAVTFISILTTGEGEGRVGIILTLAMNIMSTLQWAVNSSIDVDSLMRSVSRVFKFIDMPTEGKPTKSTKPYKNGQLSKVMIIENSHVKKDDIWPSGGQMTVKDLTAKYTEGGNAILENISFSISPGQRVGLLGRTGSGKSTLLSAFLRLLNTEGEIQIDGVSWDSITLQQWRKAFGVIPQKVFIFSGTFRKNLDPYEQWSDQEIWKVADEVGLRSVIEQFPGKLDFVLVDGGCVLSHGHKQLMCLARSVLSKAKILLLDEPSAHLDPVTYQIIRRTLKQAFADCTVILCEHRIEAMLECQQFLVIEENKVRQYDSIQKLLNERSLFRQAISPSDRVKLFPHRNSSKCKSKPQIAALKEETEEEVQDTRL

Turning to `COc1cc(C(C)(C)O)ccc1CN[C@H]1[C@H](C(C)(C)C)[C@@H](C(=O)O)N(C(=O)C2CCCCC2)[C@H]1c1ccccc1` [Example I-89], the “Maximum % activity (with co-corrector)” value was “+ (<150)” and the Emax was less than 100%. For the same molecule, the EC50 under setting [1] is more than 10000 nM. Moreover, the EC50 under setting [2] was more than 10000 nM.
Turning to `COc1ccc(C(C)(C)C)cc1CN[C@H]1[C@H](C(C)(C)C)[C@@H](C(=O)O)N(C(=O)c2cc(C#N)ccc2OC)[C@H]1c1ccccc1` [Example I-90], the “Maximum % activity (with co-corrector)” value is listed as “+++ (≥350)” and the Emax was 100 to 200%. For the same molecule, under setting [1], the half-maximal effective concentration (EC50) was in the range of 1000 to 10000 nM. The EC50 under setting [2] was 1000 to 10000 nM.
As to `COc1ccc(C(C)(C)C)cc1CN[C@H]1[C@H](C(C)(C)C)[C@@H](C(=O)O)N(C(=O)CN2Cc3ccccc3C2)[C@H]1c1ccccc1` [Example I-91], the “Maximum % activity (with co-corrector)” value is “+++ (≥350)” and the Emax was more than 200%. Besides, the EC50 under setting [1] lay within 1000 to 10000 nM. For the same molecule, under setting [2], the EC50 was 1000 to 10000 nM.
Consider `COc1ccc(C(C)(C)C)cc1CN[C@H]1[C@H](C(C)(C)C)[C@@H](C(=O)O)N(C(=O)Cc2ccsc2)[C@H]1c1ccccc1` [Example I-92], for which the “Maximum % activity (with co-corrector)” value was “+++ (≥350)” and the Emax is more than 200%. Further, the EC50 under setting [1] fell in the range of 1000 to 10000 nM. The EC50 under setting [2] lay in the range of 1000 to 10000 nM.
In the case of `COc1ccc(C(C)(C)C)cc1CN[C@H]1[C@H](C(C)(C)C)[C@@H](C(=O)O)N(C(=O)c2ccc3cccc(F)c3n2)[C@H]1c1ccccc1` [Example I-93], the “Maximum % activity (with co-corrector)” value is recorded as “+++ (≥350)” and the Emax fell in the range of 100 to 200%. For the same molecule, the EC50 under setting [1] is 1000 to 10000 nM. Moreover, under setting [2], the EC50 fell in the range of 1000 to 10000 nM.
`COc1ccc(CC(C)C)cc1CN[C@H]1[C@H](C(C)(C)C)[C@@H](C(=O)O)N(C(=O)C2CCCCC2)[C@H]1c1ccccc1` [Example I-94]: the “Maximum % activity (with co-corrector)” value is on record as “+++ (≥350)” and the Emax is more than 200%. The EC50 under setting [1] was less than 1000 nM. Under setting [2], the EC50 was less than 1000 nM.
For the molecule `COc1ccc(C(C)(C)C)cc1CN[C@H]1[C@H](C(C)(C)C)[C@@H](C(=O)O)N(C(=O)Cc2c[nH]cn2)[C@H]1c1ccccc1` [Example I-98], the “Maximum % activity (with co-corrector)” value was “++ (≥150 and <350)”; the Emax was less than 100%. Also, the concentration giving a half-maximal response (EC50) under setting [1] lay within 1000 to 10000 nM. Also, the EC50 under setting [2] fell in the range of 1000 to 10000 nM.
On to `COc1ccc(C(C)(C)C)cc1CN[C@H]1[C@H](C(C)(C)C)[C@@H](C(=O)O)N(C(=O)CC2(O)CCCC2)[C@H]1c1ccccc1` [Example I-99], for which the “Maximum % activity (with co-corrector)” value is “+++ (≥350)” and the Emax was more than 200%. The 50% effective concentration (EC50) under setting [1] was in the range of 1000 to 10000 nM. Moreover, the EC50 under setting [2] lay within 1000 to 10000 nM.
`COc1ccc(C(C)(C)C)cc1CN[C@H]1[C@H](C(C)(C)C)[C@@H](C(=O)O)N(C(=O)CN2CCCCCC2)[C@H]1c1ccccc1` [Example I-100]: the “Maximum % activity (with co-corrector)” value was “+++ (≥350)” and the Emax was more than 200%. Under setting [1], the EC50 fell in the range of 1000 to 10000 nM. Under setting [2], the EC50 was in the range of 1000 to 10000 nM.
For `CCn1ccc(=O)c(C(=O)N2[C@H](C(=O)O)[C@@H](C(C)(C)C)[C@H](NCc3cc(C(C)(C)C)ccc3OC)[C@@H]2c2ccccc2)c1` [Example I-101], the “Maximum % activity (with co-corrector)” value was “+ (<150)” and the Emax was less than 100%. In addition, the 50% effective concentration (EC50) under setting [1] is more than 10000 nM. Also, the EC50 under setting [2] is more than 10000 nM.
Consider `COc1ccc(C(C)(C)C)cc1CN[C@H]1[C@H](C(C)(C)C)[C@@H](C(=O)O)N(C(=O)c2cc3occc3n2C)[C@H]1c1ccccc1` [Example I-102], for which the “Maximum % activity (with co-corrector)” value is reported as “+++ (≥350)” and the Emax lay within 100 to 200%. The EC50 under setting [1] lay in the range of 1000 to 10000 nM. Besides, the EC50 under setting [2] was in the range of 1000 to 10000 nM.
Consider `COc1ccc(C(C)(C)C)cc1CN[C@H]1[C@H](C(C)(C)C)[C@@H](C(=O)O)N(C(=O)C(C)n2cc(Cl)cn2)[C@H]1c1ccccc1` (some centres unmarked) [Example I-103], for which the “Maximum % activity (with co-corrector)” value is “+++ (≥350)” and the Emax fell in the range of 100 to 200%. In addition, the EC50 under setting [1] lay within 1000 to 10000 nM. In addition, the EC50 under setting [2] lay within 1000 to 10000 nM.
Take `COc1ccc(C(C)C)cc1CN[C@H]1[C@H](C(C)(C)C)[C@@H](C(=O)O)N(C(=O)C2CCCCC2)[C@H]1c1ccc(F)cc1` [Example I-109]: the “Maximum % activity (with co-corrector)” value was “+++ (≥350)” and the Emax was more than 200%. Also, the EC50 under setting [1] was 1000 to 10000 nM. Further, the concentration giving a half-maximal response (EC50) under setting [2] was less than 1000 nM.
The like results for `COc1ncc(C(F)(F)F)cc1CN[C@H]1[C@H](C(C)(C)C)[C@@H](C(=O)O)N(C(=O)C2CCCCC2)[C@H]1c1ccccc1F` [Example I-110] were, in that order, “+++ (≥350)”, less than 100%, less than 1000 nM and less than 1000 nM.
Turning to `COc1ccc(C(C)C)cc1CN[C@H]1[C@H](C(C)(C)C)[C@@H](C(=O)O)N(C(=O)C2CCCCC2)[C@H]1c1ccccc1F` [Example I-111], the “Maximum % activity (with co-corrector)” value is “+++ (≥350)” and the Emax lay in the range of 100 to 200%. The EC50 under setting [1] fell in the range of 1000 to 10000 nM. Under setting [2], the 50% effective concentration (EC50) was less than 1000 nM.
Consider `COc1ccc(C(C)(C)C)cc1CN[C@H]1[C@H](C(C)(C)C)[C@@H](C(=O)O)N(C(=O)C2CCCCC2)[C@H]1c1ccc(F)cc1` [Example I-112], for which the “Maximum % activity (with co-corrector)” value is on record as “+++ (≥350)” and the Emax is more than 200%. Also, under setting [1], the EC50 is less than 1000 nM. Besides, the EC50 under setting [2] was less than 1000 nM.
As for `COc1ccc(-c2cncnc2)cc1CN[C@H]1[C@H](C(C)(C)C)[C@@H](C(=O)O)N(C(=O)C2CCCCC2)[C@H]1c1ccccc1` [Example I-114], the “Maximum % activity (with co-corrector)” value was “++ (≥150 and <350)”; the Emax was less than 100%. The EC50 under setting [1] was 1000 to 10000 nM. In addition, the EC50 under setting [2] is 1000 to 10000 nM.
For the molecule `COc1ncc(C2CCC2)cc1CN[C@H]1[C@H](C(C)(C)OC)[C@@H](C(=O)O)N(C(=O)C2CCCCC2)[C@H]1c1ccccc1` [Example I-115], the “Maximum % activity (with co-corrector)” value is on record as “+++ (≥350)” and the Emax is more than 200%. In addition, the EC50 under setting [1] lay within 1000 to 10000 nM. Also, under setting [2], the EC50 was less than 1000 nM.
The like results for `COc1ncc(C2CCCC2)cc1CN[C@H]1[C@H](C(C)(C)OC)[C@@H](C(=O)O)N(C(=O)C2CCCCC2)[C@H]1c1ccccc1` [Example I-116] were, in that order, “+++ (≥350)”, 100 to 200%, less than 1000 nM and less than 1000 nM.
Turning to `COc1ccc(C2CC3CCC2C3)cc1CN[C@H]1[C@H](C(C)(C)OC)[C@@H](C(=O)O)N(C(=O)C2CCCCC2)[C@H]1c1ccccc1` (some centres unmarked) [Example I-117], the “Maximum % activity (with co-corrector)” value is recorded as “+++ (≥350)” and the Emax was more than 200%. In addition, under setting [1], the concentration giving a half-maximal response (EC50) was 1000 to 10000 nM. Moreover, the EC50 under setting [2] is less than 1000 nM.
`COc1ccc(CC2CCCCC2)cc1CN[C@H]1[C@H](C(C)(C)OC)[C@@H](C(=O)O)N(C(=O)C2CCCCC2)[C@H]1c1ccccc1` [Example I-118]: the “Maximum % activity (with co-corrector)” value is “+++ (≥350)” and the Emax was more than 200%. For the same molecule, under setting [1], the EC50 is less than 1000 nM. Further, the half-maximal effective concentration (EC50) under setting [2] is less than 1000 nM.
Take `COc1ccc(C(C)(C)C)cc1CN[C@H]1[C@H](C(C)(C)C)[C@@H](C(=O)O)N(C(=O)OC2CCCC2)[C@H]1c1ccccc1` [Example I-119]: the “Maximum % activity (with co-corrector)” value is reported as “+++ (≥350)” and the Emax was more than 200%. Under setting [1], the EC50 lay in the range of 1000 to 10000 nM. Also, under setting [2], the EC50 is less than 1000 nM.
Take `COc1ncc(C(F)(F)F)cc1CN[C@H]1[C@H](C(C)(C)C)[C@@H](C(=O)O)N(C(=O)C2CCCCC2)[C@H]1c1cccnc1N(C)C` [Example I-120]: the “Maximum % activity (with co-corrector)” value is on record as “+++ (≥350)” and the Emax lay within 100 to 200%. The EC50 under setting [1] is 1000 to 10000 nM. Also, the concentration giving a half-maximal response (EC50) under setting [2] fell in the range of 1000 to 10000 nM.
Consider `COc1ccc(C(F)(F)F)cc1CN[C@H]1[C@H](C(C)(C)C)[C@@H](C(=O)O)N(C(=O)[C@@H]2CCCC(F)(F)C2)[C@H]1c1ccccc1` [Example I-124], for which the “Maximum % activity (with co-corrector)” value was “+++ (≥350)” and the Emax is less than 100%. For the same molecule, under setting [1], the EC50 is 1000 to 10000 nM. Under setting [2], the EC50 was in the range of 1000 to 10000 nM.
Regarding `COc1ccc(-c2ccnnc2)cc1CN[C@H]1[C@H](C(C)(C)C)[C@@H](C(=O)O)N(C(=O)C2CCCCC2)[C@H]1c1ccccc1` [Example I-125], the “Maximum % activity (with co-corrector)” value is “+ (<150)” and the Emax is less than 100%. Also, the concentration giving a half-maximal response (EC50) under setting [1] is more than 10000 nM. In addition, the EC50 under setting [2] was more than 10000 nM.
`COc1ccc(-c2ccccc2F)cc1CN[C@H]1[C@H](C(C)(C)C)[C@@H](C(=O)O)N(C(=O)C2CCCCC2)[C@H]1c1ccccc1` [Example I-126]: the “Maximum % activity (with co-corrector)” value was “+++ (≥350)” and the Emax is more than 200%. The EC50 under setting [1] was less than 1000 nM. In addition, the concentration giving a half-maximal response (EC50) under setting [2] was less than 1000 nM.
In the case of `COc1ccc(-c2sc(C)nc2C)cc1CN[C@H]1[C@H](C(C)(C)C)[C@@H](C(=O)O)N(C(=O)C2CCCCC2)[C@H]1c1ccccc1` [Example I-127], the “Maximum % activity (with co-corrector)” value is “+++ (≥350)” and the Emax lay within 100 to 200%. In addition, under setting [1], the EC50 was in the range of 1000 to 10000 nM. In addition, the concentration giving a half-maximal response (EC50) under setting [2] fell in the range of 1000 to 10000 nM.
`COc1ccc(-c2ccccc2C#N)cc1CN[C@H]1[C@H](C(C)(C)C)[C@@H](C(=O)O)N(C(=O)C2CCCCC2)[C@H]1c1ccccc1` [Example I-128]: the “Maximum % activity (with co-corrector)” value is listed as “+++ (≥350)” and the Emax lay within 100 to 200%. Moreover, under setting [1], the EC50 is 1000 to 10000 nM. The EC50 under setting [2] fell in the range of 1000 to 10000 nM.
On to `COc1ccc(C2=CCOCC2)cc1CN[C@H]1[C@H](C(C)(C)C)[C@@H](C(=O)O)N(C(=O)C2CCCCC2)[C@H]1c1ccccc1` [Example I-129], for which the “Maximum % activity (with co-corrector)” value is listed as “+++ (≥350)” and the Emax fell in the range of 100 to 200%. Besides, the EC50 under setting [1] lay in the range of 1000 to 10000 nM. The 50% effective concentration (EC50) under setting [2] was in the range of 1000 to 10000 nM.

The EC50 is the concentration that produces a half-maximal response.
